Assay [1] has as its system OMFP-bound CDC25B-C473S. Kind of assay: Intrinsic fluorescence quenching of CDC25B-C473S in the presence of 5 µM OMFP (Stern-Volmer). Format: binding. From the text:
(§1) The mutant form of CDC25B, carrying the C473S replacement (CDC25B-C473S), was obtained through site-directed mutagenesis of the CDC25B catalytic segment cloned in pET28a-CDC25B-cd. To this aim, the QuikChange site-directed mutagenesis kit (Stratagene, La Jolla, CA, USA) and the forward and reverse primers for C473S replacement (5′d-[…]-3′ and 5′d-[…]-3′) were used. Positive clones were obtained, and the nucleotide sequencing of the mutagenised segment excluded the presence of undesired mutations. The new vector was called pET28a-CDC25B-C473S-cd. The expression of the new vector and the purification of the recombinant form of CDC25B-C473S catalytic domain were carried out as previously reported for wild-type CDC25B catalytic domain[18], and similar yields were obtained. As expected, the mutant enzyme was unable to hydrolyse the synthetic substrate OMFP, when its activity was checked with the fluorimetric assay method previously described.
(§2) Fluorescence spectra were recorded at 20 °C using a computer-assisted Cary Eclipse spectrofluorimeter (Varian, Palo Alto, CA, USA) equipped with an electronic temperature controller. The excitation wavelength was set at 280 nm and the excitation and emission slits were set at 10 and 20 nm, respectively. A 500 µL final volume of a 0.2 µM solution of CDC25B or CDC25B-C473S dissolved in 20 mM Tris•HCl, pH 7.8, 0.5 mM TCEP was directly prepared in the fluorimetric cuvette in the absence or in the presence of OMFP and/or some NPA derivatives. Serial pre-dilutions of the NPA derivatives or OMFP at increasing concentration were prepared in DMSO or methanol, respectively. Alongside, a convenient amount of the enzyme pre-dilution was prepared just before its usage for the experiment and stored on ice. When the combined effect of NPA derivative and OMFP was investigated, two enzyme pre-dilutions were prepared in the absence or in the presence of 5 µM OMFP. In order to evaluate the specific effect produced by any addition of solvent/ligand on the intrinsic fluorescence of the enzyme, 495 µL of the enzyme pre-dilution were placed in the fluorimetric cuvette and the relative spectrum was recorded; after the addition of 5 µL of each pre-dilution of solvent/ligand and fast mixing, the spectrum was recorded again. This procedure, repeated for each experimental point, allowed a normalisation of the specific effects produced by solvent/ligands. Furthermore, a correction was also applied for the little inner-filter effect due to the absorbance at 280 nm of the NPA derivative used at different concentrations; on the other hand, no correction was necessary for OMFP. All spectra, recorded at a scan speed of 120 nm/min, were normalised and corrected.

Assay [2] concerns the target T1, OMFP-bound CDC25B-C473S (Homo sapiens, UniProt P30305, C487S).
T1 sequence (P30305 370-580 C487S): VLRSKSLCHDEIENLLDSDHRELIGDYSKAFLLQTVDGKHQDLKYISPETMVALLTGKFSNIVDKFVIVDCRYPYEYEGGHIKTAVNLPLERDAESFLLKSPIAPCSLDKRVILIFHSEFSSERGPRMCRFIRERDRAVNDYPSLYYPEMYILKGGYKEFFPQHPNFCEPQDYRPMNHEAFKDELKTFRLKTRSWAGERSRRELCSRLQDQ
The assay is described as above. Format: binding. To be noted: reciprocal of KSV; presence of 5 µM OMFP; read-out: K′D of the complex, OMFP-bound CDC25B-C473S•inhibitor.
Excerpt: as §1, §2

From PMC7580834, “Inhibition mechanism of naphthylphenylamine derivatives acting on the CDC25B dual phosphatase and analysis of the molecular processes involved in the high cytotoxicity exerted by one selected derivative in melanoma cells” (Journal of Enzyme Inhibition and Medicinal Chemistry, 2020) come the findings set out here.

In the case of `CCOC(=O)c1cccc(Nc2cc(OC)cc3ccccc23)c1` [4a], the “KSV (Stern-Volmer constant)” value in assay [1] (0.2 µM CDC25B-C473S, in the presence of 5 µM OMFP) came to 0.031 µM⁻¹. Moreover, the “K′D/Ki ratio” value in assay [1] (K′D of OMFP-bound CDC25B-C473S•inhibitor over Ki) was determined as 3.8. The Kd in assay [2] came to 32 µM.
